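Five concentrations, 48 hours, 96-well plates. The concentration for 50% growth inhibition is given as GI50.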 Activity calls are given as the source filed them. Cut-off read from the data, not from the text of the source: active = GI50 up to about 1.1 µM and inactive = higher.
Tests used:
Test in all cases: NCI-60 cell line screen, 48 h
A549 = test system: A549
CCRF-CEM = test system: CCRF-CEM
COLO 205 = test system: COLO 205
DU-145 = test system: DU-145
EKVX = test system: EKVX
HCT-116 = test system: HCT-116
HOP-62 = test system: HOP-62
HOP-92 = test system: HOP-92
OVCAR-3 = test system: OVCAR-3
RXF 393 = test system: RXF 393
SF-295 = test system: SF-295
SF-539 = test system: SF-539
SK-MEL-2 = test system: SK-MEL-2
SK-MEL-5 = test system: SK-MEL-5
SK-OV-3 = test system: SK-OV-3
SN12C = test system: SN12C
SNB-75 = test system: SNB-75
TK-10 = test system: TK-10
U-251 = test system: U-251
CAKI-1 = test system: CAKI-1

| SMILES | GI50 (A549) | GI50 (CCRF-CEM) | GI50 (COLO 205) | GI50 (DU-145) | GI50 (EKVX) | GI50 (HCT-116) | GI50 (HOP-62) | GI50 (HOP-92) | GI50 (OVCAR-3) | GI50 (RXF 393) | GI50 (SF-295) | GI50 (SF-539) | GI50 (SK-MEL-2) | GI50 (SK-MEL-5) | GI50 (SK-OV-3) | GI50 (SN12C) | GI50 (SNB-75) | GI50 (TK-10) | GI50 (U-251) | GI50 (CAKI-1) |
| --- | --- | --- | --- | --- | --- | --- | --- | --- | --- | --- | --- | --- | --- | --- | --- | --- | --- | --- | --- | --- |
| Nc1nc(O)c2[nH]cnc2[n+]1[O-] | > 100 µM (inactive) | > 100 µM (inactive) | > 100 µM (inactive) | > 100 µM (inactive) | > 100 µM (inactive) | > 100 µM (inactive) | > 100 µM (inactive) | > 100 µM (inactive) | > 100 µM (inactive) | > 100 µM (inactive) | > 100 µM (inactive) | > 100 µM (inactive) | > 100 µM (inactive) | > 100 µM (inactive) | > 100 µM (inactive) | 40.5 µM (inactive) | > 100 µM (inactive) | 53.3 µM (inactive) | > 100 µM (inactive) | – |
| CCOC(=O)C(C)c1nc2c(Cl)c3ncccc3cc2[nH]c1=O (centres undefined) | 53.2 µM (inactive) | 28.2 µM (inactive) | > 100 µM (inactive) | > 100 µM (inactive) | 31 µM (inactive) | 76.9 µM (inactive) | 34.1 µM (inactive) | 29.8 µM (inactive) | 57.3 µM (inactive) | 62.8 µM (inactive) | 79.8 µM (inactive) | – | > 100 µM (inactive) | 30.5 µM (inactive) | > 100 µM (inactive) | > 100 µM (inactive) | 62.2 µM (inactive) | 59.7 µM (inactive) | 30.8 µM (inactive) | 69.5 µM (inactive) |
| CCN1C(=O)C(C)S/C1=N\NC(=O)CSc1nc2ccccc2c(=O)n1CC (centres undefined) | > 100 µM (inactive) | > 100 µM (inactive) | > 100 µM (inactive) | > 100 µM (inactive) | > 100 µM (inactive) | > 100 µM (inactive) | > 100 µM (inactive) | – | > 100 µM (inactive) | > 100 µM (inactive) | > 100 µM (inactive) | > 100 µM (inactive) | > 100 µM (inactive) | > 100 µM (inactive) | > 100 µM (inactive) | > 100 µM (inactive) | > 100 µM (inactive) | > 100 µM (inactive) | > 100 µM (inactive) | > 100 µM (inactive) |
| CC#CCCCC1(C)CCCNC1=S (centres undefined) | > 10 µM (inactive) | > 10 µM (inactive) | – | > 10 µM (inactive) | > 10 µM (inactive) | – | – | > 10 µM (inactive) | > 10 µM (inactive) | > 10 µM (inactive) | > 10 µM (inactive) | > 10 µM (inactive) | > 10 µM (inactive) | > 10 µM (inactive) | > 10 µM (inactive) | > 10 µM (inactive) | > 10 µM (inactive) | > 10 µM (inactive) | > 10 µM (inactive) | – |
| O=C1/C(=C/c2ccccc2[N+](=O)[O-])N=C(c2ccccc2)N1C1Nc2cc3c(cc2S1)NC(N1C(=O)/C(=C/c2ccccc2[N+](=O)[O-])N=C1c1ccccc1)S3 (centres undefined) | 12.6 µM (inactive) | – | – | 30.8 µM (inactive) | 27.7 µM (inactive) | 16 µM (inactive) | 89.5 µM (inactive) | > 100 µM (inactive) | 37.2 µM (inactive) | > 100 µM (inactive) | 63.8 µM (inactive) | 44.8 µM (inactive) | 36.8 µM (inactive) | 42.1 µM (inactive) | – | – | > 100 µM (inactive) | 72.4 µM (inactive) | 31 µM (inactive) | 39.7 µM (inactive) |
| C[C@]12[C@@H]3CC[C@H]1[C@@H](O)C(=O)N2CC3 | > 100 µM (inactive) | > 100 µM (inactive) | > 100 µM (inactive) | > 100 µM (inactive) | > 100 µM (inactive) | > 100 µM (inactive) | > 100 µM (inactive) | > 100 µM (inactive) | – | > 100 µM (inactive) | > 100 µM (inactive) | – | > 100 µM (inactive) | > 100 µM (inactive) | > 100 µM (inactive) | > 100 µM (inactive) | > 100 µM (inactive) | > 100 µM (inactive) | > 100 µM (inactive) | > 100 µM (inactive) |
| Nc1ccc(Oc2ccc(C3(c4ccc(Oc5ccc(N)c(O)c5)cc4)C4CC5C6CC7CC5C3C(C7)C6C4)cc2)cc1O | 1.56 µM (inactive) | 16 µM (inactive) | 2.37 µM (inactive) | 1.86 µM (inactive) | 1.38 µM (inactive) | 1.71 µM (inactive) | 1.73 µM (inactive) | 1.77 µM (inactive) | 1.52 µM (inactive) | 1.7 µM (inactive) | 2.77 µM (inactive) | 2.61 µM (inactive) | 2.36 µM (inactive) | 3.86 µM (inactive) | – | 1.55 µM (inactive) | – | 3.15 µM (inactive) | 1.81 µM (inactive) | 2.49 µM (inactive) |
| CNC(Cc1ccccc1)c1cccc(OC)c1O (centres undefined) | > 100 µM (inactive) | – | – | > 100 µM (inactive) | 92.9 µM (inactive) | > 100 µM (inactive) | > 100 µM (inactive) | > 100 µM (inactive) | 60.5 µM (inactive) | > 100 µM (inactive) | > 100 µM (inactive) | – | > 100 µM (inactive) | > 100 µM (inactive) | – | > 100 µM (inactive) | – | > 100 µM (inactive) | > 100 µM (inactive) | > 100 µM (inactive) |
| O=C(O)C(NCc1ccccc1)C(NCc1ccccc1)C(=O)O (centres undefined) | > 100 µM (inactive) | > 100 µM (inactive) | > 100 µM (inactive) | > 100 µM (inactive) | > 100 µM (inactive) | > 100 µM (inactive) | > 100 µM (inactive) | > 100 µM (inactive) | > 100 µM (inactive) | – | > 100 µM (inactive) | > 100 µM (inactive) | > 100 µM (inactive) | > 100 µM (inactive) | > 100 µM (inactive) | > 100 µM (inactive) | > 100 µM (inactive) | > 100 µM (inactive) | > 100 µM (inactive) | > 100 µM (inactive) |
| O=C1/C(=C/c2cccs2)N=C(c2ccccc2)N1c1nc2ccccc2s1 | 41.5 µM (inactive) | 0.162 µM (active) | – | 67.3 µM (inactive) | 49.9 µM (inactive) | 38.4 µM (inactive) | > 100 µM (inactive) | 26.5 µM (inactive) | > 100 µM (inactive) | 33.3 µM (inactive) | > 100 µM (inactive) | > 100 µM (inactive) | > 100 µM (inactive) | > 100 µM (inactive) | – | > 100 µM (inactive) | – | > 100 µM (inactive) | 95.1 µM (inactive) | 14 µM (inactive) |
| COc1cc(CC(C)=O)cc(OC)c1 | > 100 µM (inactive) | 29.8 µM (inactive) | > 100 µM (inactive) | > 100 µM (inactive) | 67.5 µM (inactive) | 50.6 µM (inactive) | > 100 µM (inactive) | 29.9 µM (inactive) | 56.5 µM (inactive) | – | 91 µM (inactive) | – | – | 91.2 µM (inactive) | > 100 µM (inactive) | 46.8 µM (inactive) | 17.9 µM (inactive) | > 100 µM (inactive) | 63.5 µM (inactive) | – |
| Clc1ccc(Oc2ccc(/N=C/c3ccc(Cl)cc3Cl)cc2Cl)cc1 | 64.6 µM (inactive) | 4.29 µM (inactive) | 64.7 µM (inactive) | 64.6 µM (inactive) | 30.1 µM (inactive) | 33 µM (inactive) | 54.3 µM (inactive) | 34.2 µM (inactive) | 33.8 µM (inactive) | – | 39.5 µM (inactive) | 23.6 µM (inactive) | 61.2 µM (inactive) | 36.1 µM (inactive) | 73.3 µM (inactive) | 48.3 µM (inactive) | 23.6 µM (inactive) | > 100 µM (inactive) | 29.4 µM (inactive) | 36.5 µM (inactive) |
| CCN1CCCC(C#N)(c2ccccc2)CC1 (centres undefined) | > 100 µM (inactive) | > 10 µM (inactive) | > 100 µM (inactive) | > 100 µM (inactive) | > 100 µM (inactive) | > 100 µM (inactive) | > 100 µM (inactive) | > 100 µM (inactive) | – | > 100 µM (inactive) | > 100 µM (inactive) | – | – | > 100 µM (inactive) | > 100 µM (inactive) | – | 99.5 µM (inactive) | > 100 µM (inactive) | > 100 µM (inactive) | > 100 µM (inactive) |
| CN(C)CCCNC(=S)S | > 100 µM (inactive) | > 100 µM (inactive) | > 100 µM (inactive) | > 100 µM (inactive) | > 100 µM (inactive) | > 100 µM (inactive) | > 100 µM (inactive) | > 100 µM (inactive) | > 100 µM (inactive) | > 100 µM (inactive) | > 100 µM (inactive) | > 100 µM (inactive) | > 100 µM (inactive) | > 100 µM (inactive) | > 100 µM (inactive) | > 100 µM (inactive) | – | > 100 µM (inactive) | > 100 µM (inactive) | > 100 µM (inactive) |
| C[C@H]1C(OCCOC2O[C@@H]3O[C@@]4(C)CC[C@H]5[C@H](C)CCC([C@H]2C)[C@@]35O4)O[C@@H]2O[C@@]3(C)CC[C@H]4[C@H](C)CCC1[C@@]24O3 (some centres undefined) | 39.8 µM (inactive) | 30.5 µM (inactive) | 16.7 µM (inactive) | 19.5 µM (inactive) | – | 21 µM (inactive) | 37.7 µM (inactive) | 45.3 µM (inactive) | 28.1 µM (inactive) | – | – | 55.7 µM (inactive) | 17.7 µM (inactive) | 15.3 µM (inactive) | 74.6 µM (inactive) | 21 µM (inactive) | 25.9 µM (inactive) | – | 40.9 µM (inactive) | 37.2 µM (inactive) |
| O=C1CCC(N2C(=O)c3ccccc3C2=O)C(=O)N1 (centres undefined) [THALIDOMIDE] | > 100 µM (inactive) | > 100 µM (inactive) | > 100 µM (inactive) | > 100 µM (inactive) | > 100 µM (inactive) | > 100 µM (inactive) | > 100 µM (inactive) | > 100 µM (inactive) | – | > 100 µM (inactive) | > 100 µM (inactive) | – | > 100 µM (inactive) | > 100 µM (inactive) | > 100 µM (inactive) | > 100 µM (inactive) | > 100 µM (inactive) | – | > 100 µM (inactive) | > 100 µM (inactive) |

From ChEMBL document CHEMBL1201862, “PubChem BioAssay data set” (2004)
